Results as given in ChEMBL document CHEMBL1201862, “PubChem BioAssay data set” (2004).
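Tested at 5 concentrations; 48 h exposure; 96-well plates; endpoints linearly interpolated, else capped at highest concentration. The concentration for 50% growth inhibition is given as GI50.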 Calls of active or inactive are those of the source. Rule as the data show it: active = GI50 up to about 1.1 µM and inactive = higher.

Legend:
Experiment in all cases: inhibition of tumour cell growth, NCI panel, 48 h
[1] = test system: ACHN
[2] = test system: OVCAR-5
[3] = test system: HOP-62
[4] = test system: TK-10
[5] = test system: HCC 2998
[6] = test system: OVCAR-3
[7] = test system: SNB-75
[8] = test system: RPMI-8226
[9] = test system: KM-20L2
[10] = test system: DLD-1
[11] = test system: SNB-19
[12] = test system: U-251
[13] = test system: A549
[14] = test system: SK-OV-3
[15] = test system: IGROV-1
[16] = test system: NCI-H23
[17] = test system: SW-620
[18] = test system: EKVX
[19] = test system: SNB-78
[20] = test system: M14
[21] = test system: NCI-H460
[22] = test system: XF498
[23] = test system: NCI-H226
[24] = test system: HCT-116
[25] = test system: OVCAR-8
[26] = test system: Malme-3M
[27] = test system: HT-29
[28] = test system: MOLT-4
[29] = test system: UACC-257
[30] = test system: SF-295
[31] = test system: NCI-H522
[32] = test system: SN12C
[33] = test system: RXF 393
[34] = test system: K562
[35] = test system: HCT-15
[36] = test system: DMS-114
[37] = test system: CAKI-1
[38] = test system: CCRF-CEM
[39] = test system: KM12
[40] = test system: SR
[41] = test system: LXFL 529
[42] = test system: 786-0
[43] = test system: UACC-62
[44] = test system: SK-MEL-2
[45] = test system: DMS-273
[46] = test system: HL-60
[47] = test system: SF-268
[48] = test system: OVCAR-4
[49] = test system: HOP-18
[50] = test system: LOX IMVI
[51] = test system: M19-MEL
[52] = test system: COLO 205
[53] = test system: SK-MEL-28
[54] = test system: UO-31
[55] = test system: HOP-92
[56] = test system: SF-539
[57] = test system: SK-MEL-5
[58] = test system: A498

Q: Which GI50 [1] does the source give for CCOC(=O)C1(C#N)C(c2ccccc2)CC(O)(c2ccc([N+](=O)[O-])cc2)C(C(=O)c2ccc([N+](=O)[O-])cc2)C1c1ccccc1 (configuration not stated) here?
A: > 100 µM (inactive)

Q: And the GI50 [2]?
A: > 100 µM (inactive)

Q: What about the GI50 [3] of the same compound?
A: > 100 µM (inactive)

Q: And the GI50 [4]?
A: > 100 µM (inactive)

Q: And the GI50 [5]?
A: > 100 µM (inactive)

Q: What about the GI50 [6] of the same compound?
A: > 100 µM (inactive)

Q: What about the GI50 [7] of the same compound?
A: 21 µM (inactive)

Q: What about the GI50 [8] of the same compound?
A: > 100 µM (inactive)

Q: And the GI50 [9]?
A: > 100 µM (inactive)

Q: What about the GI50 [10] of the same compound?
A: > 100 µM (inactive)

Q: What about the GI50 [11] of the same compound?
A: 32.2 µM (inactive)

Q: And the GI50 [12]?
A: > 100 µM (inactive)

Q: And the GI50 [13]?
A: > 100 µM (inactive)

Q: And the GI50 [14]?
A: > 100 µM (inactive)

Q: And the GI50 [15]?
A: > 100 µM (inactive)

Q: And the GI50 [16]?
A: 42.2 µM (inactive)

Q: What about the GI50 [17] of the same compound?
A: > 100 µM (inactive)

Q: And the GI50 [18]?
A: > 100 µM (inactive)

Q: What about the GI50 [19] of the same compound?
A: > 100 µM (inactive)

Q: What about the GI50 [20] of the same compound?
A: > 100 µM (inactive)

Q: What about the GI50 [21] of the same compound?
A: > 100 µM (inactive)

Q: And the GI50 [22]?
A: > 100 µM (inactive)

Q: And the GI50 [23]?
A: > 100 µM (inactive)

Q: What about the GI50 [24] of the same compound?
A: > 100 µM (inactive)

Q: What about the GI50 [25] of the same compound?
A: > 100 µM (inactive)

Q: And the GI50 [26]?
A: > 100 µM (inactive)

Q: What about the GI50 [27] of the same compound?
A: > 100 µM (inactive)

Q: And the GI50 [28]?
A: > 100 µM (inactive)

Q: What about the GI50 [29] of the same compound?
A: > 100 µM (inactive)

Q: What about the GI50 [30] of the same compound?
A: > 100 µM (inactive)

Q: And the GI50 [31]?
A: 34 µM (inactive)

Q: What about the GI50 [32] of the same compound?
A: > 100 µM (inactive)

Q: What about the GI50 [33] of the same compound?
A: 15.5 µM (inactive)

Q: What about the GI50 [34] of the same compound?
A: > 100 µM (inactive)

Q: What about the GI50 [35] of the same compound?
A: > 100 µM

Q: What about the GI50 [36] of the same compound?
A: > 100 µM (inactive)

Q: What about the GI50 [37] of the same compound?
A: > 100 µM (inactive)

Q: And the GI50 [38]?
A: > 100 µM (inactive)

Q: And the GI50 [39]?
A: > 100 µM (inactive)

Q: And the GI50 [40]?
A: > 100 µM (inactive)

Q: And the GI50 [41]?
A: > 100 µM (inactive)

Q: What about the GI50 [42] of the same compound?
A: > 100 µM (inactive)

Q: And the GI50 [43]?
A: > 100 µM (inactive)

Q: What about the GI50 [44] of the same compound?
A: > 100 µM (inactive)

Q: And the GI50 [45]?
A: > 100 µM (inactive)

Q: What about the GI50 [46] of the same compound?
A: > 100 µM (inactive)

Q: And the GI50 [47]?
A: > 100 µM (inactive)

Q: And the GI50 [48]?
A: > 100 µM (inactive)

Q: What about the GI50 [49] of the same compound?
A: 29.9 µM (inactive)

Q: And the GI50 [50]?
A: > 100 µM (inactive)

Q: What about the GI50 [51] of the same compound?
A: > 100 µM (inactive)

Q: And the GI50 [52]?
A: > 100 µM (inactive)

Q: What about the GI50 [53] of the same compound?
A: > 100 µM (inactive)

Q: What about the GI50 [54] of the same compound?
A: > 100 µM (inactive)

Q: Which results are given for CC(=O)OC1CC2OC(Cc3ccccc32)O1 (configuration not stated)?
A: GI50 [1]: > 100 µM (inactive); GI50 [55]: 34 µM (inactive); GI50 [3]: > 100 µM (inactive); GI50 [4]: > 100 µM (inactive); GI50 [5]: > 100 µM (inactive); GI50 [6]: > 100 µM (inactive); GI50 [7]: 65 µM (inactive); GI50 [8]: > 100 µM (inactive); GI50 [9]: > 100 µM (inactive); GI50 [10]: 64.1 µM (inactive); GI50 [56]: 29.9 µM (inactive); GI50 [11]: > 100 µM (inactive); GI50 [12]: 52.1 µM (inactive); GI50 [13]: > 100 µM (inactive); GI50 [14]: > 100 µM (inactive); GI50 [15]: > 100 µM (inactive); GI50 [16]: > 100 µM (inactive); GI50 [17]: > 100 µM (inactive); GI50 [18]: > 100 µM (inactive); GI50 [19]: > 100 µM (inactive); GI50 [20]: 79.1 µM (inactive); GI50 [21]: > 100 µM (inactive); GI50 [22]: > 100 µM (inactive); GI50 [23]: 36.8 µM (inactive); GI50 [24]: > 100 µM (inactive); GI50 [25]: > 100 µM (inactive); GI50 [26]: 27.6 µM (inactive); GI50 [27]: > 100 µM (inactive); GI50 [28]: 48.9 µM (inactive); GI50 [29]: > 100 µM (inactive); GI50 [30]: 65.3 µM (inactive); GI50 [31]: > 100 µM (inactive); GI50 [32]: 64.1 µM (inactive); GI50 [33]: > 100 µM (inactive); GI50 [34]: > 100 µM (inactive); GI50 [36]: > 100 µM (inactive); GI50 [38]: 56.1 µM (inactive); GI50 [39]: > 100 µM (inactive); GI50 [40]: > 100 µM (inactive); GI50 [41]: > 100 µM (inactive); GI50 [42]: > 100 µM (inactive); GI50 [43]: > 100 µM (inactive); GI50 [44]: > 100 µM (inactive); GI50 [45]: > 100 µM (inactive); GI50 [46]: > 100 µM (inactive); GI50 [47]: > 100 µM (inactive); GI50 [49]: 32.8 µM (inactive); GI50 [50]: > 100 µM (inactive); GI50 [51]: 60.4 µM (inactive); GI50 [52]: > 100 µM (inactive); GI50 [53]: > 100 µM (inactive); GI50 [54]: > 100 µM (inactive)

Q: What does the source list for O=C1NC2OC(C(O)CO)C(O)C2O1 (configuration not stated)?
A: GI50 [1]: > 100 µM (inactive); GI50 [55]: > 100 µM (inactive); GI50 [2]: > 100 µM (inactive); GI50 [4]: > 100 µM (inactive); GI50 [5]: > 100 µM (inactive); GI50 [6]: > 100 µM (inactive); GI50 [7]: > 100 µM (inactive); GI50 [9]: > 100 µM (inactive); GI50 [11]: > 100 µM (inactive); GI50 [12]: > 100 µM (inactive); GI50 [13]: > 100 µM (inactive); GI50 [14]: > 100 µM (inactive); GI50 [15]: > 100 µM (inactive); GI50 [16]: > 100 µM (inactive); GI50 [17]: > 100 µM (inactive); GI50 [18]: > 100 µM (inactive); GI50 [57]: > 100 µM (inactive); GI50 [20]: > 100 µM (inactive); GI50 [21]: > 100 µM (inactive); GI50 [22]: > 100 µM (inactive); GI50 [24]: > 100 µM (inactive); GI50 [25]: > 100 µM (inactive); GI50 [26]: > 100 µM (inactive); GI50 [27]: > 100 µM (inactive); GI50 [28]: > 100 µM (inactive); GI50 [29]: > 100 µM (inactive); GI50 [30]: > 100 µM (inactive); GI50 [31]: > 100 µM (inactive); GI50 [32]: > 100 µM (inactive); GI50 [34]: > 100 µM (inactive); GI50 [35]: > 100 µM; GI50 [36]: > 100 µM (inactive); GI50 [37]: > 100 µM (inactive); GI50 [38]: > 100 µM (inactive); GI50 [39]: > 100 µM (inactive); GI50 [40]: > 100 µM (inactive); GI50 [58]: > 100 µM (inactive); GI50 [41]: > 100 µM (inactive); GI50 [42]: > 100 µM (inactive); GI50 [43]: > 100 µM (inactive); GI50 [44]: > 100 µM (inactive); GI50 [45]: > 100 µM (inactive); GI50 [46]: > 100 µM (inactive); GI50 [47]: > 100 µM (inactive); GI50 [48]: > 100 µM (inactive); GI50 [49]: > 100 µM (inactive); GI50 [50]: > 100 µM (inactive); GI50 [51]: > 100 µM (inactive); GI50 [52]: > 100 µM (inactive); GI50 [53]: > 100 µM (inactive); GI50 [54]: > 100 µM (inactive)
